What was measured:
KC6141 mouse PDAC cells = assay: Cell viability assay (CCK-8); format: cell-based; conditions: WT and IKKα KD 6141 cells on ECM, 0.5 mM glucose, 3 days; EIPA, IPI549 600 nM, MBQ-167 500 nM
Procedure: Extracellular Matrix (ECM) Preparation. Skin fibroblasts were seeded on 6/12/96-well plates. One day after plating, cells were switched into DMEM (with pyruvate) with 10% dialysed FBS supplemented with or without 500 μM ^3H-proline and 100 μM Vitamin C. Cells were cultured for 6 days with media renewal every 24 h. After six days, skin fibroblasts were removed by washing in 1 ml or 500 μl or 100 μl per well PBS with 0.5% (v/v) Triton X-100 and 20 mM NH4OH. ECM was washed five times with PBS before plating KC6141 cells. The following day, KC6141 cells were switched into the indicated medium for 24 or 72 hrs.
Cell viability assay. Cell viability was determined with Cell Counting Kit-8 assay (CCK-8 assay kit, Glpbio). Cells were plated in 96-well plates at a density of 3000 cells (MIA PaCa-2) or 1500 cells (KC6141) per well and incubated overnight prior to treatment. EIPA (10 μM), MRT68921 (600 nM) or erlotinib (2 μM, Sigma) were added to the wells for 72 and 96 hrs. Next, 10 μL of CCK-8 was added to each well. The optical density was read at 450 nm using a microplate reader (FilterMax F5, Molecular Devices, USA) at day 0, 1, 2, 3, and 4. For glutamine-deprivation assays, cells in 96-well plates were rinsed briefly in PBS and incubated in the 0.2 mM glutamine. Glutamine-free DMEM medium was supplemented with 0.2 mM glutamine in the presence of 10% dialysed FBS and 25 mM HEPES. For some conditions, the medium was supplemented with a final concentration of 2% BSA (Fraction V, fatty-acid-, nuclease and protease-free, Calbiochem). For all experiments, media were replaced every 24 hrs. Viable cell counts were obtained using CCK-8 assay described as above.
In some embodiments, cells were plated in 96-well plates coated with or without ECM at a density of 3000 cells (MIA PaCa-2, 1444, 1305, COLO 357/FG) or 1500 cells (KC6141) per well and incubated overnight prior to treatment. EIPA (10.5 μM), IPI549 (600 nM), MBQ-167 (500 nM), MRT68921 (600 nM) or erlotinib (2 μM, Sigma), ML385 (10 μM, Sigma), HCQ (10 μM or 80 μM) or their combinations were added to the wells for 24, 72 or 96 hrs. Next, 10 μL of CCK-8 was added to each well. The optical density was read at 450 nm using a microplate reader (FilterMax F5, Molecular Devices, USA) at day 0, 1, 2, 3, and 4. For glutamine-deprivation assays, cells in 96-well plates were rinsed briefly in PBS and incubated in the 0.2 mM glutamine. Glutamine-free DMEM medium was supplemented with 0.2 mM glutamine in the presence of 10% dialyzed FBS and 25 mM HEPES. For glucose-deprivation assays, cells in 96-well plates were rinsed briefly in PBS and incubated in the 0.5 mM glucose. Glucose-free DMEM medium was supplemented with 0.5 mM glucose in the presence of 10% dialyzed FBS and 25 mM HEPES. For some conditions, the medium was supplemented with a final concentration of 2% BSA (Fraction V, fatty-acid-, nuclease and protease-free, Calbiochem). For all experiments, media were replaced every 24 hrs. Viable cell counts were obtained using CCK-8 assay described as above.

AKT phosphorylation = assay: Immunoblot of AKT phosphorylation; format: cell-based, human; conditions: NRF2(E79Q)-Myc-overexpressing MIA PaCa-2 cells, 600 nM IPI549
Procedure: Immunoblot and immunoprecipitation. Cells were harvested and lysed in RIPA buffer (50 mM Tris-HCl, pH 7.4, 150 mM NaCl, 1% Triton X-100, 1% Na deoxycholate, 0.1% SDS, 1 mM EDTA) supplemented with complete protease inhibitor cocktail. Proteins were resolved on SDS-polyacrylamide gels, and then transferred to a polyvinylidene difluoride membrane. After blocking with 5% (w/v) fat free milk, the membrane was stained with the corresponding primary antibodies followed by incubation with the appropriate secondary HRP-conjugated antibodies, and development with ECL. Immunoreactive bands were detected by automatic X-ray film processor or KwikQuant Imager.

## C[C@H](NC(=O)c1c(N)nn2cccnc12)c1cc2cccc(C#Cc3cnn(C)c3)c2c(=O)n1-c1ccccc1 [IPI549]
KC6141 mouse PDAC cells
  cell viability enhanced by extracellular matrix (ECM): suppressed
AKT phosphorylation
  AKT phosphorylation: suppression of AKT phosphorylation

Reference: patent publication US12458630B2, “Combination therapy for cancer” (The Regents of the University of California, priority 2020, dated 2025)
